Our source for the IC50 values is US20250215029A1 (Recludix Pharma, Inc., priority 2022, published 2025).

The target in assay [1] is T1, Recombinant STAT6 protein (STAT6 (W123-T658)) (Homo sapiens, UniProt P42226).
T1 construct: Recombinant STAT6 protein (STAT6 (W123-T658))
T1 sequence (P42226 123-658): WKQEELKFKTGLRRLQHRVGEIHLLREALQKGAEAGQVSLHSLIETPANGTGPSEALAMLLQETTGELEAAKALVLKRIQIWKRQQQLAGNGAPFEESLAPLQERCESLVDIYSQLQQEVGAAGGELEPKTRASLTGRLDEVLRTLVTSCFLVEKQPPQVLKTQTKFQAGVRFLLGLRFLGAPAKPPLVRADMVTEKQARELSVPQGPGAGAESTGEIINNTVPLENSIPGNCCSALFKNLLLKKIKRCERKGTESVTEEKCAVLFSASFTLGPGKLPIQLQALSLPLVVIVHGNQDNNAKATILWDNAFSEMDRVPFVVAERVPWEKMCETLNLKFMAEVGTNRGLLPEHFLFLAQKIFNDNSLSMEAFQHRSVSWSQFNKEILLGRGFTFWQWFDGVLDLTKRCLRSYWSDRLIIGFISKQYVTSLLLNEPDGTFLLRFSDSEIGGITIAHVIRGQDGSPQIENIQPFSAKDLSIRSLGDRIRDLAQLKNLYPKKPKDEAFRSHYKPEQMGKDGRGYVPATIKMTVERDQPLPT
Description: STAT6 Fluorescence Polarization (FP) Assay. It is filed as binding. To be noted: STAT6 (W123-T658) 250 nM, probe 5-FAM-Ap[…]-NH2 2 nM, 45-minute incubation; read-out: STAT6 (FP assay IC50 class). In a few lines: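 Probe displacement format: serially diluted compounds incubated 45 min at room temperature with 2 nM fluorescent phosphopeptide and 250 nM STAT6 (W123-T658) in pH 7.4 HEPES buffer, 1% DMSO final. Polarization signal plotted against log concentration, IC50 fitted by nonlinear regression.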

Assay [2] concerns the target T2, Recombinant STAT3 protein (STAT3 (G127-I722)) (Homo sapiens, UniProt P40763).
T2 construct: Recombinant STAT3 protein (STAT3 (G127-I722))
The assay is described as follows: STAT3 Fluorescence Polarization (FP) Assay. To be noted: STAT3 (G127-I722) 25 nM, probe 5-FAM-GpYLPQTV-NH2 2 nM, 45-minute incubation; read-out: STAT3 (FP assay IC50 class). It is filed as binding. In a few lines:
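Read-out is fluorescence polarization (mP) after 45 min at room temperature, with IC50 fitted by nonlinear regression against log compound concentration. Mixture: 25 nM STAT3 (G127-I722), 2 nM 5-FAM-GpYLPQTV-NH2 phosphopeptide, 10 mM HEPES pH 7.4 buffer, 1% DMSO.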

T2 sequence (P40763 127-722): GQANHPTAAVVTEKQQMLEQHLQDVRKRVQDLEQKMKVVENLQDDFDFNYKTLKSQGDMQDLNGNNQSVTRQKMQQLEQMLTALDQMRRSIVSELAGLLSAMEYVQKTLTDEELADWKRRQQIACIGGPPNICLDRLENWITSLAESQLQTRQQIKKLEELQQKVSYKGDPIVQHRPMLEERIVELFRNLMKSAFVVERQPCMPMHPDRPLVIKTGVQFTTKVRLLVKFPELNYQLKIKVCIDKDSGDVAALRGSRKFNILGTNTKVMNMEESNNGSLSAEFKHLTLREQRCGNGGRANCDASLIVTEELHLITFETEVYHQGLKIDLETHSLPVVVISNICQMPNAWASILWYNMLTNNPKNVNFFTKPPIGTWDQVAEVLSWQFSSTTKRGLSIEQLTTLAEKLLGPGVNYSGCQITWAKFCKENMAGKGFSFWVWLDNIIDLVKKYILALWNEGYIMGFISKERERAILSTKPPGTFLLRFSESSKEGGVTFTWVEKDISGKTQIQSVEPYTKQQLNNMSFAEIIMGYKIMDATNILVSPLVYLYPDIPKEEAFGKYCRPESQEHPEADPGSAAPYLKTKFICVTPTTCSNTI

For `CC[C@@H]1CC[C@H](NC(=O)c2cc3cc([C@H](F)P(=O)(O)O)ccc3s2)C(=O)N2[C@H](CC[C@H]2C(=O)N2CC(c3cnccc3N3CCC3)C2)C1` [Compound 931, ((R)-(2-(((3S,6S,9R,10aR)-3-(3-(4-(azetidin-1-yl)pyridin-3-yl)azetidine-1-carbonyl)-9-ethyl-5-oxodecahydropyrrolo [1,2-a]azocin-6-yl)carbamoyl)benzo [b]thiophen-5-yl)fluoromethyl) phosphonic acid], the figures for the IC50 in assay [1] and in assay [2] were 300 to 3000 nM and less than 100 nM, respectively.
For `COc1c(C2CN(C(=O)[C@@H]3CC[C@@H]4CCC[C@H](NC(=O)c5cc6cc(C(F)P(=O)(O)O)ccc6s5)C(=O)N43)C2)ccnc1C#N` (stereo partly drawn) [Compound 932, ((2-(((3S,6S,9aS)-3-(3-(2-cyano-3-methoxypyridin-4-yl)azetidine-1-carbonyl)-5-oxooctahydro-1H-pyrrolo[1,2-a]azepin-6-yl)carbamoyl)benzo [b]thiophen-5-yl)fluoromethyl) phosphonic acid], in that order: 3000 to 30000 nM and less than 100 nM.
On the same counts, the results for `COC1CN(c2ccncc2C2CN(C(=O)[C@@H]3CC[C@@H]4C[C@H](C)C[C@H](NC(=O)c5cc6cc(CP(=O)(O)O)ccc6s5)C(=O)N43)C2)C1` [Compound 933, ((2-(((3S,6S,8R,9aR)-3-(3-(4-(3-methoxyazetidin-1-yl)pyridin-3-yl)azetidine-1-carbonyl)-8-methyl-5-oxooctahydro-1H-pyrrolo[1,2-a]azepin-6-yl)carbamoyl)benzo [b]thiophen-5-yl)methyl) phosphonic acid] are 3000 to 30000 nM and less than 100 nM.
For `CC[C@H]1CC[C@H](NC(=O)c2cc3cc([C@H](F)P(=O)(O)O)ccc3s2)C(=O)N2[C@H](CC[C@H]2C(=O)N2CC(c3cnccc3N3CCC3)C2)C1` [Compound 938, ((R)-(2-(((3S,6S,9S,10aR)-3-(3-(4-(azetidin-1-yl)pyridin-3-yl)azetidine-1-carbonyl)-9-ethyl-5-oxodecahydropyrrolo [1,2-a]azocin-6-yl)carbamoyl)benzo [b]thiophen-5-yl)fluoromethyl) phosphonic acid], in that order: 300 to 3000 nM and less than 100 nM.
With `CC(C)c1ccncc1C1CN(C(=O)[C@@H]2CC[C@@H]3CCC[C@H](NC(=O)c4cc5cc(C(F)P(=O)(O)O)ccc5s4)C(=O)N32)C1` (stereo partly drawn) [Compound 939, (fluoro(2-(((3S,6S,9aS)-3-(3-(4-isopropylpyridin-3-yl)azetidine-1-carbonyl)-5-oxooctahydro-1H-pyrrolo[1,2-a]azepin-6-yl)carbamoyl)benzo [b]thiophen-5-yl)methyl) phosphonic acid], the IC50 in assay [1] is 3000 to 30000 nM; in assay [2], less than 100 nM.
Consider `CC(NC(=O)[C@@H]1CC[C@@H]2CCCC[C@H](NC(=O)c3cc4cc(C(F)(F)P(=O)(O)O)ccc4s3)C(=O)N21)c1n[nH]c2ncccc12` (stereo partly drawn) [Compound 1107, ((2-(((3S,6S,10aS)-3-((1-(1H-pyrazolo[3,4-b]pyridin-3-yl)ethyl)carbamoyl)-5-oxodecahydropyrrolo[1,2-a]azocin-6-yl)carbamoyl)benzo[b]thiophen-5-yl)difluoromethyl)phosphonic acid], for which the half-inhibitory concentration (IC50) is 300 to 3000 nM in assay [1] and 100 to 1000 nM in assay [2].
For `O=C(N[C@H]1CCCC[C@H]2CC[C@@H](C(=O)NCc3cnc4[nH]ncc4c3)N2C1=O)c1cc2cc(C(F)(F)P(=O)(O)O)ccc2s1` [Compound 1108, ((2-(((3S,6S,10aS)-3-(((1H-pyrazolo[3,4-b]pyridin-5-yl)methyl)carbamoyl)-5-oxodecahydropyrrolo[1,2-a]azocin-6-yl)carbamoyl)benzo[b]thiophen-5-yl)difluoromethyl)phosphonic acid], in that order: 3000 to 30000 nM and 100 to 1000 nM.
For `Cc1cc(C#N)ccc1C1CN(C(=O)[C@@H]2CC[C@@H]3CCCC[C@H](NC(=O)c4cc5cc(C(F)(F)P(=O)(O)O)ccc5s4)C(=O)N32)C1` [Compound 1110, ((2-(((3S,6S,10aS)-3-(3-(4-cyano-2-methylphenyl)azetidine-1-carbonyl)-5-oxodecahydropyrrolo[1,2-a]azocin-6-yl)carbamoyl)benzo[b]thiophen-5-yl)difluoromethyl)phosphonic acid], in that order: 300 to 3000 nM and less than 100 nM.
Consider `O=C(N[C@H]1CCCC[C@H]2CC[C@@H](C(=O)NCc3cnc4[nH]cnc4c3)N2C1=O)c1cc2cc(C(F)(F)P(=O)(O)O)ccc2s1` [Compound 1112, ((2-(((3S,6S,10aS)-3-(((3H-imidazo[4,5-b]pyridin-6-yl)methyl)carbamoyl)-5-oxodecahydropyrrolo[1,2-a]azocin-6-yl)carbamoyl)benzo[b]thiophen-5-yl)difluoromethyl)phosphonic acid], for which the half-maximal inhibitory concentration (IC50) in assay [1] is 300 to 3000 nM; in assay [2] it was less than 100 nM.
On the same counts, the results for `CC(NC(=O)[C@@H]1CC[C@@H]2CCCC[C@H](NC(=O)c3cc4cc(C(F)(F)P(=O)(O)O)ccc4s3)C(=O)N21)c1c[nH]c2ncccc12` (stereo partly drawn) [Compound 1113, ((2-(((3S,6S,10aS)-3-((1-(1H-pyrrolo[2,3-b]pyridin-3-yl)ethyl)carbamoyl)-5-oxodecahydropyrrolo[1,2-a]azocin-6-yl)carbamoyl)benzo[b]thiophen-5-yl)difluoromethyl)phosphonic acid] are 300 to 3000 nM and 100 to 1000 nM.
On the same counts, the results for `O=C(N[C@H]1CCCC[C@H]2CC[C@@H](C(=O)NCc3cnc4[nH]ccc4c3)N2C1=O)c1cc2cc(C(F)(F)P(=O)(O)O)ccc2s1` [Compound 1114, ((2-(((3S,6S,10aS)-3-(((1H-pyrrolo[2,3-b]pyridin-5-yl)methyl)carbamoyl)-5-oxodecahydropyrrolo[1,2-a]azocin-6-yl)carbamoyl)benzo[b]thiophen-5-yl)difluoromethyl)phosphonic acid] are 300 to 3000 nM and 100 to 1000 nM.
As for `O=C(N[C@H]1CCC[C@H]2CC[C@@H](C(=O)NCc3ccc4[nH]cnc4c3)N2C1=O)c1cc2cc(C(F)(F)P(=O)(O)O)ccc2s1` [Compound 1115, ((2-(((3S,6S,9aS)-3-(((1H-benzo[d]imidazol-5-yl)methyl)carbamoyl)-5-oxooctahydro-1H-pyrrolo[1,2-a]azepin-6-yl)carbamoyl)benzo[b]thiophen-5-yl)difluoromethyl)phosphonic acid], the IC50 in assay [1] was 300 to 3000 nM; in assay [2] it was less than 100 nM.
For the compound `Cc1nc2cc(CNC(=O)[C@@H]3CC[C@@H]4CCC[C@H](NC(=O)c5cc6cc(C(F)(F)P(=O)(O)O)ccc6s5)C(=O)N43)ccc2[nH]1` [Compound 1116, (difluoro(2-(((3S,6S,9aS)-3-(((2-methyl-1H-benzo[d]imidazol-5-yl)methyl)carbamoyl)-5-oxooctahydro-1H-pyrrolo[1,2-a]azepin-6-yl)carbamoyl)benzo[b]thiophen-5-yl)methyl)phosphonic acid], the half-inhibitory concentration (IC50) in assay [1] was in the range of 3000 to 30000 nM; in assay [2], 100 to 1000 nM.
On the same counts, the results for `O=C(N[C@H]1CCC[C@H]2CC[C@@H](C(=O)NCc3ccc4[nH]c(=O)[nH]c4c3)N2C1=O)c1cc2cc(C(F)(F)P(=O)(O)O)ccc2s1` [Compound 1117, (difluoro(2-(((3S,6S,9aS)-5-oxo-3-(((2-oxo-2,3-dihydro-1H-benzo[d]imidazol-5-yl)methyl)carbamoyl)octahydro-1H-pyrrolo[1,2-a]azepin-6-yl)carbamoyl)benzo[b]thiophen-5-yl)methyl)phosphonic acid] are 300 to 3000 nM and 100 to 1000 nM.
